Tests used:
Type in all cases: in vivo
[1] = system: morningglory (Ipomoea spp.); test: Test A greenhouse pre-/postemergence herbicide test, morningglory; conditions: 0 to 100 scale, 0 no effect, 100 complete control, approx. 10 days
From the text: (§1) Seeds of plant species selected from barnyardgrass (Echinochloa crus-galli), large (Lg) crabgrass (Digitaria sanguinalis), giant foxtail (Setaria faberii), morningglory (Ipomoea spp.), pigweed (redroot pigweed, Amaranthus retroflexus), velvetleaf (Abutilon theophrasti), winter wheat (Triticum aestivum), and corn (Zea mays) were planted into a blend of loam soil and sand and treated preemergence with a directed soil spray using test chemicals formulated in a non-phytotoxic solvent mixture which included a surfactant. At the same time these species were also treated with postemergence applications of test compounds formulated in the same manner. Plants ranged in height from 2 to 10 cm and were in the one- to two-leaf stage for the postemergence treatment. Treated plants and untreated controls were maintained in a greenhouse for approximately 10 days, after which time all treated plants were visually compared to untreated controls and visually evaluated for injury. Plant response ratings, summarized in Table A, are based on a 0 to 100 scale where 0 is no effect and 100 is complete control. A dash (-) response means no test result.

[2] = system: pigweed (redroot pigweed, Amaranthus retroflexus); test: Test A greenhouse pre-/postemergence herbicide test, pigweed; conditions: 0 to 100 scale, 0 no effect, 100 complete control, approx. 10 days
From the text: as §1

[3] = system: barnyardgrass (Echinochloa crus-galli); test: Test A greenhouse pre-/postemergence herbicide test, barnyardgrass; conditions: 0 to 100 scale, 0 no effect, 100 complete control, approx. 10 days
From the text: as §1

[4] = system: large (Lg) crabgrass (Digitaria sanguinalis); test: Test A greenhouse pre-/postemergence herbicide test, large crabgrass; conditions: 0 to 100 scale, 0 no effect, 100 complete control, approx. 10 days
From the text: as §1

[5] = system: small-flower umbrella sedge (Cyperus difformis); test: Test B flooded paddy test, small-flower umbrella sedge; conditions: scale of 0 to 100, 0 no effect, 100 complete control, 13 to 15 days
Method: (§2) Plant species in the flooded paddy test selected from rice (Oryza sativa), small-flower umbrella sedge (Cyperus difformis), duck salad (Heteranthera limosa), and barnyardgrass (Echinochloa crus-galli) were grown to the 2-leaf stage for testing. At time of treatment, test pots were flooded to 3 cm above the soil surface, treated by application of test compounds directly to the paddy water, and then maintained at that water depth for the duration of the test. Treated plants and controls were maintained in a greenhouse for 13 to 15 days, after which time all species were visually compared to controls and visually evaluated. Plant response ratings, summarized in Table B, are based on a scale of 0 to 100 where 0 is no effect and 100 is complete control. A dash (-) response means no test result.

[6] = system: duck salad (Heteranthera limosa); test: Test B flooded paddy test, duck salad; conditions: scale of 0 to 100, 0 no effect, 100 complete control, 13 to 15 days
Method: as §2

rice (Oryza sativa) = test: Test B flooded paddy test, rice; conditions: scale of 0 to 100, 0 no effect, 100 complete control, 13 to 15 days
Method: as §2

[7] = system: giant foxtail (Setaria faberii); test: Test A greenhouse pre-/postemergence herbicide test, giant foxtail; conditions: 0 to 100 scale, 0 no effect, 100 complete control, approx. 10 days
From the text: as §1

[8] = system: winter wheat (Triticum aestivum); test: Test A greenhouse pre-/postemergence herbicide test, winter wheat; conditions: 0 to 100 scale, 0 no effect, 100 complete control, approx. 10 days
From the text: as §1

[9] = system: barnyardgrass (Echinochloa crus-galli); test: Test B flooded paddy test, barnyardgrass; conditions: scale of 0 to 100, 0 no effect, 100 complete control, 13 to 15 days
Method: as §2

[10] = system: velvetleaf (Abutilon theophrasti); test: Test A greenhouse pre-/postemergence herbicide test, velvetleaf; conditions: 0 to 100 scale, 0 no effect, 100 complete control, approx. 10 days
From the text: as §1

corn (Zea mays) = test: Test A greenhouse pre-/postemergence herbicide test, corn; conditions: 0 to 100 scale, 0 no effect, 100 complete control, approx. 10 days
From the text: as §1

Cn1nc(C(=O)C2=C(O)CCCC2=O)c(=O)n(CCS(=O)(=O)CC2CC2)c1=O [Compound 3, 4-[2-[(cyclopropylmethyl)sulfonyl]ethyl]-6-[(2-hydroxy-6-oxo-1-cyclohexen-1-yl)carbonyl]-2-methyl-1,2,4-triazine-3,5(2H,4H)-dione]
Plant response rating, Morningglory ([1]; 31 g ai/ha Postemergence): 60 | Plant response rating, Morningglory ([1]; 125 g ai/ha Postemergence): 60 | Plant response rating, Morningglory ([1]; 125 g ai/ha Preemergence): 10 | Plant response rating, Pigweed ([2]; 31 g ai/ha Postemergence): 40 | Plant response rating, Pigweed ([2]; 31 g ai/ha Preemergence): 20 | Plant response rating, Pigweed ([2]; 125 g ai/ha Postemergence): 100 | Plant response rating, Pigweed ([2]; 125 g ai/ha Preemergence): 100 | Plant response rating, Barnyardgrass ([3]; 31 g ai/ha Postemergence): 20 | Plant response rating, Barnyardgrass ([3]; 31 g ai/ha Preemergence): 0 | Plant response rating, Barnyardgrass ([3]; 125 g ai/ha Postemergence): 90 | Plant response rating, Barnyardgrass ([3]; 125 g ai/ha Preemergence): 40 | Plant response rating, Crabgrass, Large ([4]; 31 g ai/ha Postemergence): 30 | Plant response rating, Crabgrass, Large ([4]; 31 g ai/ha Preemergence): 10 | Plant response rating, Crabgrass, Large ([4]; 125 g ai/ha Postemergence): 90 | Plant response rating, Crabgrass, Large ([4]; 125 g ai/ha Preemergence): 40 | Plant response rating, Sedge, Umbrella ([5]; 31 g ai/ha Flood): 0 | Plant response rating, Sedge, Umbrella ([5]; 62 g ai/ha Flood): 0 | Plant response rating, Sedge, Umbrella ([5]; 125 g ai/ha Flood): 50 | Plant response rating, Sedge, Umbrella ([5]; 250 g ai/ha Flood): 75 | Plant response rating, Ducksalad ([6]; 31 g ai/ha Flood): 0 | Plant response rating, Ducksalad ([6]; 62 g ai/ha Flood): 0 | Plant response rating, Ducksalad ([6]; 125 g ai/ha Flood): 0 | Plant response rating, Ducksalad ([6]; 250 g ai/ha Flood): 85 | Plant response rating, Rice (rice (Oryza sativa); 31 g ai/ha Flood): 0 | Plant response rating, Rice (rice (Oryza sativa); 62 g ai/ha Flood): 0 | Plant response rating, Rice (rice (Oryza sativa); 125 g ai/ha Flood): 0 | Plant response rating, Rice (rice (Oryza sativa); 250 g ai/ha Flood): 30 | Plant response rating, Foxtail, Giant ([7]; 31 g ai/ha Postemergence): 0 | Plant response rating, Foxtail, Giant ([7]; 31 g ai/ha Preemergence): 0 | Plant response rating, Foxtail, Giant ([7]; 125 g ai/ha Postemergence): 40 | Plant response rating, Foxtail, Giant ([7]; 125 g ai/ha Preemergence): 0 | Plant response rating, Wheat ([8]; 31 g ai/ha Postemergence): 0 | Plant response rating, Wheat ([8]; 31 g ai/ha Preemergence): 0 | Plant response rating, Wheat ([8]; 125 g ai/ha Postemergence): 30 | Plant response rating, Wheat ([8]; 125 g ai/ha Preemergence): 10 | Plant response rating, Barnyardgrass ([9]; 31 g ai/ha Flood): 0 | Plant response rating, Barnyardgrass ([9]; 62 g ai/ha Flood): 0 | Plant response rating, Barnyardgrass ([9]; 125 g ai/ha Flood): 0 | Plant response rating, Barnyardgrass ([9]; 250 g ai/ha Flood): 20 | Plant response rating, Velvetleaf ([10]; 31 g ai/ha Postemergence): 100 | Plant response rating, Velvetleaf ([10]; 31 g ai/ha Preemergence): 0 | Plant response rating, Velvetleaf ([10]; 125 g ai/ha Postemergence): 100 | Plant response rating, Velvetleaf ([10]; 125 g ai/ha Preemergence): 30 | Plant response rating, Corn (corn (Zea mays); 31 g ai/ha Postemergence): 0 | Plant response rating, Corn (corn (Zea mays); 31 g ai/ha Preemergence): 0 | Plant response rating, Corn (corn (Zea mays); 125 g ai/ha Postemergence): 0 | Plant response rating, Corn (corn (Zea mays); 125 g ai/ha Preemergence): 0

Cn1nc(C(=O)C2=C(O)CCCC2=O)c(=O)n(CCSCC2CC2)c1=O [Compound 4, 4-[2-[(cyclopropylmethyl)thio]ethyl]-6-[(2-hydroxy-6-oxo-1-cyclohexen-1-yl)carbonyl]-2-methyl-1,2,4-triazine-3,5(2H,4H)-dione]
Plant response rating, Morningglory ([1]; 31 g ai/ha Postemergence): 10 | Plant response rating, Morningglory ([1]; 31 g ai/ha Preemergence): 0 | Plant response rating, Morningglory ([1]; 125 g ai/ha Postemergence): 100 | Plant response rating, Morningglory ([1]; 125 g ai/ha Preemergence): 0 | Plant response rating, Pigweed ([2]; 31 g ai/ha Postemergence): 10 | Plant response rating, Pigweed ([2]; 31 g ai/ha Preemergence): 0 | Plant response rating, Pigweed ([2]; 125 g ai/ha Postemergence): 50 | Plant response rating, Pigweed ([2]; 125 g ai/ha Preemergence): 0 | Plant response rating, Barnyardgrass ([3]; 31 g ai/ha Postemergence): 0 | Plant response rating, Barnyardgrass ([3]; 31 g ai/ha Preemergence): 0 | Plant response rating, Barnyardgrass ([3]; 125 g ai/ha Postemergence): 10 | Plant response rating, Barnyardgrass ([3]; 125 g ai/ha Preemergence): 0 | Plant response rating, Crabgrass, Large ([4]; 31 g ai/ha Postemergence): 0 | Plant response rating, Crabgrass, Large ([4]; 31 g ai/ha Preemergence): 0 | Plant response rating, Crabgrass, Large ([4]; 125 g ai/ha Postemergence): 10 | Plant response rating, Crabgrass, Large ([4]; 125 g ai/ha Preemergence): 0 | Plant response rating, Sedge, Umbrella ([5]; 31 g ai/ha Flood): 0 | Plant response rating, Sedge, Umbrella ([5]; 62 g ai/ha Flood): 0 | Plant response rating, Sedge, Umbrella ([5]; 125 g ai/ha Flood): 50 | Plant response rating, Sedge, Umbrella ([5]; 250 g ai/ha Flood): 65 | Plant response rating, Ducksalad ([6]; 31 g ai/ha Flood): 0 | Plant response rating, Ducksalad ([6]; 62 g ai/ha Flood): 0 | Plant response rating, Ducksalad ([6]; 125 g ai/ha Flood): 50 | Plant response rating, Ducksalad ([6]; 250 g ai/ha Flood): 65 | Plant response rating, Rice (rice (Oryza sativa); 31 g ai/ha Flood): 0 | Plant response rating, Rice (rice (Oryza sativa); 62 g ai/ha Flood): 0 | Plant response rating, Rice (rice (Oryza sativa); 125 g ai/ha Flood): 15 | Plant response rating, Rice (rice (Oryza sativa); 250 g ai/ha Flood): 60 | Plant response rating, Foxtail, Giant ([7]; 31 g ai/ha Postemergence): 0 | Plant response rating, Foxtail, Giant ([7]; 31 g ai/ha Preemergence): 0 | Plant response rating, Foxtail, Giant ([7]; 125 g ai/ha Postemergence): 0 | Plant response rating, Foxtail, Giant ([7]; 125 g ai/ha Preemergence): 0 | Plant response rating, Wheat ([8]; 31 g ai/ha Postemergence): 0 | Plant response rating, Wheat ([8]; 31 g ai/ha Preemergence): 0 | Plant response rating, Wheat ([8]; 125 g ai/ha Postemergence): 10 | Plant response rating, Wheat ([8]; 125 g ai/ha Preemergence): 0 | Plant response rating, Barnyardgrass ([9]; 31 g ai/ha Flood): 0 | Plant response rating, Barnyardgrass ([9]; 62 g ai/ha Flood): 0 | Plant response rating, Barnyardgrass ([9]; 125 g ai/ha Flood): 0 | Plant response rating, Barnyardgrass ([9]; 250 g ai/ha Flood): 15 | Plant response rating, Velvetleaf ([10]; 31 g ai/ha Postemergence): 70 | Plant response rating, Velvetleaf ([10]; 31 g ai/ha Preemergence): 0 | Plant response rating, Velvetleaf ([10]; 125 g ai/ha Postemergence): 90 | Plant response rating, Velvetleaf ([10]; 125 g ai/ha Preemergence): 0 | Plant response rating, Corn (corn (Zea mays); 31 g ai/ha Postemergence): 0 | Plant response rating, Corn (corn (Zea mays); 31 g ai/ha Preemergence): 0 | Plant response rating, Corn (corn (Zea mays); 125 g ai/ha Postemergence): 0 | Plant response rating, Corn (corn (Zea mays); 125 g ai/ha Preemergence): 0

— patent US20140106968A1, “SUBSTITUTED 1,2,4-TRIAZINE-3,5-DIONES AS HERBICIDES” (E I Du Pont De Nemours and Company, priority 2012, published 2014)
